Assay results from paper PMC6061857 (2018).

Columns and labels:
[1] = tested on: 38-GT (DNA, aptamer) GGGAGACAAGGAAAATCCTTCAATGAAGTGGGTCTCCC; assay: ITC; settings: 10 mM Tris, pH 7.4, 23 °C
[2] = tested on: 35-GT (DNA, aptamer) GGGAGACAAGGAAAATCCTTCAATGAAGTGGGTCT; assay: ITC; settings: 10 mM Tris, pH 7.4, 23 °C
[3] = tested on: ATP-33 (DNA, aptamer) CGCACCTGGGGGAGTATTGCGGAGGAAGGTGCG; assay: ITC, two-site sequential binding; settings: 10 mM Mg2+; 10 mM Tris, pH 7.4, 23 °C; site 1 of 2 (KD2 12.3 ± 0.6 μM)
[4] = tested on: ATP-30 (DNA, aptamer) CGCACCTGGGGGAGTATTGCGGAGGAAGGT; assay: ITC, two-site sequential binding; settings: 10 mM Mg2+; 10 mM Tris, pH 7.4, 23 °C; site 1 of 2 (KD2 10.1 ± 0.3 μM)

KD [1] [µM] | KD [2] [µM] | KD1 [3] [µM] | KD1 [4] [µM] | Structure (SMILES)
1.6 ± 0.2 | 12 ± 1.0 | – | – | COC(=O)[C@H]1[C@@H](OC(=O)c2ccccc2)C[C@@H]2CC[C@H]1N2C
– | – | 0.6 ± 0.1 | 0.8 ± 0.1 | Nc1ncnc2c1ncn2[C@@H]1O[C@H](COP(=O)(O)OP(=O)(O)OP(=O)(O)O)[C@@H](O)[C@H]1O
